From US11938121B2, “Treatment of infections and biofilm formation using a cellulose synthase inhibitor” (Purdue Research Foundation, priority 2020, dated 2024) come the findings set out here.

For assay [1], the system named is Arabidopsis Col-0. Briefly: Arabidopsis Col-0 root growth and root swelling assay. The class given is in vivo, Arabidopsis thaliana. As to conditions: same dosage as ES20. The procedure: During the primary screening, we sowed Col-0 seeds on solid growth medium supplemented with 0.1% DMSO or 3 mg/L of different compounds with molar concentrations ranging from 5-10 μM. After 7 days of growth, we imaged the seedlings and evaluated the inhibitory effect of each chemical. Because disrupting cellulose biosynthesis by treating plants with a cellulose biosynthesis inhibitor or introducing mutations in the cellulose biosynthesis pathway often leads to root growth inhibition, root swelling, as well as ectopic lignin accumulation (Arioli et al., Science 1998, 279, 717-720; Huang et al., 2020), we first evaluated the ability of the compounds to inhibit root growth and cause root swelling. […] We grew wildtype seedlings on growth medium supplemented with DMSO (0.1%) or different concentrations of ES20 analogs for 7 days and quantified the crystalline cellulose content in root cell wall. […]
To test the inhibitory effects of different chemicals on plant growth, wild-type Arabidopsis Col-0 plants were used. […] To quantify the inhibitory effects of different ES20 active analogs on the root growth of Arabidopsis wildtype, EMS mutants, and transgenic plants expressing mutated AtCESA6 in prc1-1 background, sterilized Col-0, mutants, and transgenic plants seeds were sown on gridded Petri plates containing ½-strength MS medium supplemented with different concentrations of ES20 analogs. […]

Assay [2] has as its system Arabidopsis Col-0. Briefly: Etiolated hypocotyl growth assay. It is filed as in vivo, Arabidopsis thaliana. As to conditions: dark-grown Col-0, dosages examined. The procedure:
To test the inhibitory effects of different chemicals on plant growth, wild-type Arabidopsis Col-0 plants were used. The seeds of plants used for growth assays or live cell imaging were sequentially sterilized with 50% bleach and 75% ethanol. After washing with sterilized water, the seeds were sown on ½-strength Murashige and Skoog (MS) medium supplemented with 3 mg/L of various chemicals. The plants were grown under continuous light of 130 μmol m^−2 s^−1 intensity illuminated by a Philips F25T8/TL841 25-watt bulb at 22° C. To quantify the inhibitory effects of different ES20 active analogs on the root growth of Arabidopsis wildtype, EMS mutants, and transgenic plants expressing mutated AtCESA6 in prc1-1 background, sterilized Col-0, mutants, and transgenic plants seeds were sown on gridded Petri plates containing ½-strength MS medium supplemented with different concentrations of ES20 analogs. The plates were placed in vertical orientation in the growth chamber for root measurement. The plates were scanned using an Epson Perfection V550 scanner after 7 days of growth, and the root lengths of plants were quantified using ImageJ software. […] The Petri dishes were scanned, and hypocotyl length was measured using ImageJ. Transgenic plants expressing fluorescence-tagged PIN2, PIP2a, HDEL, VHA-a1, and GOT1p were as reported previously (Xu and Scheres, Plant Cell, 2005, 17, 525-536).

Turning to `Cc1ccccc1C(=O)NNC(=S)NC(=O)c1ccccc1` [ES20-1], the “root growth inhibition compared with ES20” value in assay [1] is reported as “more strongly inhibited root growth than ES20”. For the same compound, the “hypocotyl growth inhibition compared with ES20” value in assay [2] is “inhibited hypocotyl growth more strongly than ES20”.
